From patent US8129366B2, “VLA-4 inhibitory drug” (Daiichi Sankyo Company, Limited, priority 2005, dated 2012) come the findings set out here.

The target of this test is T1, hα4 and β1 integrins (Homo sapiens, UniProt P05556+P13612).
T1 construct: expressed in transfected cells; host or cells: CHO cells
Description: In vitro inhibition of binding between CHO cells expressing hα4 and β1 integrins and Eu3+-hVCAM-1 D1D7-IgG. To be noted: for Ki: CHO cells expressing hα4 and β1 integrins, Eu3+-hVCAM-1 D1D7-IgG ligand, without HSA; for IC50: in the presence of 3% human serum albumin (HSA final concentration 3%). The essentials:
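Bound europium-labelled VCAM-1 D1D7-IgG on α4β1-expressing CHO cells was measured by time-resolved fluorescence after washing at 4 °C. Ligand (2 nM working dilution) and test compound, with or without 3% final HSA, were co-incubated for 1 h at room temperature in Mn²⁺-containing HEPES buffer, pH 7.5. IC50 came from % binding inhibition; Ki was calculated from ligand concentration and Scatchard Kd.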

T1 sequence (P13612 34-1032): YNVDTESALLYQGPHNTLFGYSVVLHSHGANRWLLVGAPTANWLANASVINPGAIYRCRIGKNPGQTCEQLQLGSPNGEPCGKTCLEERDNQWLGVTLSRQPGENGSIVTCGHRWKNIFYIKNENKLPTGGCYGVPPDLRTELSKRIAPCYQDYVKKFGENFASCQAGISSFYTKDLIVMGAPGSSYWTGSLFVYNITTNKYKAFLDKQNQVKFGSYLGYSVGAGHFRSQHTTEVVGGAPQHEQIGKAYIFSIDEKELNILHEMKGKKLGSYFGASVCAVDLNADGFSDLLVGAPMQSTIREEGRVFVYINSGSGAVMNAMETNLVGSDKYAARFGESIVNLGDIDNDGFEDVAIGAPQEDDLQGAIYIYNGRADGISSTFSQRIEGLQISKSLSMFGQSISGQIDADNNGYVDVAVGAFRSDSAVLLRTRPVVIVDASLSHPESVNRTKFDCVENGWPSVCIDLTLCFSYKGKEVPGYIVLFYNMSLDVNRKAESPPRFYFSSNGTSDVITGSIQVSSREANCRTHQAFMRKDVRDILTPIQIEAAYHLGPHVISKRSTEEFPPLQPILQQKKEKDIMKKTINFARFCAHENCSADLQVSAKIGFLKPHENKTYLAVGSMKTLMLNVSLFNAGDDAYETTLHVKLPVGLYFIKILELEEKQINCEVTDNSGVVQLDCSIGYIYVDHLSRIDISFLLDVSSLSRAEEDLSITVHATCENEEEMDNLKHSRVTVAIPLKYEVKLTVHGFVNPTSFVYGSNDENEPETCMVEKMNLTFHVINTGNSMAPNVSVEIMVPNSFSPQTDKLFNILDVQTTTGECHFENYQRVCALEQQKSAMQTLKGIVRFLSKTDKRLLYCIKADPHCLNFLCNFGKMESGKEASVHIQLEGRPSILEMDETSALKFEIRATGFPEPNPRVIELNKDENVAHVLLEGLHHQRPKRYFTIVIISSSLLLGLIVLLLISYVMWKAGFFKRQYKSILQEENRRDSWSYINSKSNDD
T1 sequence (P05556 21-798): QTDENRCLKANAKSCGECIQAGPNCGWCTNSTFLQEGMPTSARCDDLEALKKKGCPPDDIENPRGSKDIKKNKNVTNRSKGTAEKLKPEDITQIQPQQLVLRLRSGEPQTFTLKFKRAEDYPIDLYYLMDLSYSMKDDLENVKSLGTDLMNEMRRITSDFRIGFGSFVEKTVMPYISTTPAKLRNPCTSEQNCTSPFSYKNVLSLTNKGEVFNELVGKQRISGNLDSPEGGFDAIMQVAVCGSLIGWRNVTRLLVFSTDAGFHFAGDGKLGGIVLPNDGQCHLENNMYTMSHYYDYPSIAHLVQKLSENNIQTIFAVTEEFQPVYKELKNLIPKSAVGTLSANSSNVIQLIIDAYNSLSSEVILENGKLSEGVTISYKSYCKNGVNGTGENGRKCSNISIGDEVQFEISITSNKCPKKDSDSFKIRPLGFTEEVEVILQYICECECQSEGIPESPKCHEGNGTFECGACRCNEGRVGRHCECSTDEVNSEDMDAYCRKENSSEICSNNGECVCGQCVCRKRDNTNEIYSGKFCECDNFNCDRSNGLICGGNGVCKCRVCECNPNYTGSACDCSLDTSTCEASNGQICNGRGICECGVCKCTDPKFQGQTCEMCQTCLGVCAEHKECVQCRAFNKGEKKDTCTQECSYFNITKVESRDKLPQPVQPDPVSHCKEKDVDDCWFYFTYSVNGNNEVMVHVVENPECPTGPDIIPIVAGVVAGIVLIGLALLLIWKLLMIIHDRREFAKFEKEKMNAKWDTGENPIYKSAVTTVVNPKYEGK

On to `COC1CCN([C@H]2C[C@@H](CC[C@H]3CC[C@H](C(=O)O)CC3)N(C(=O)Cc3cc(Cl)c(NC(=O)c4cn(C)c5ccccc45)cc3Cl)C2)CC1` [Example 104, Trans-4-[2-[1-[[2,5-dichloro-4-[(1-methyl-1H-indol-3-ylcarbonyl)amino]phenyl]acetyl]-(4S)-(4-methoxypiperidin-1-yl)-(2S)-pyrrolidinyl]ethyl]cyclohexanecarboxylic acid], for which affinity was put at a Ki of 4.9 nM and the IC50 amounted to 13 nM.

Turning to `CCOC1CCN([C@H]2C[C@@H](CO[C@H]3CC[C@H](C(=O)O)CC3)N(C(=O)Cc3cc(Cl)c(NC(=O)c4coc5ccccc45)cc3Cl)C2)CC1` [Example 105, Trans-4-[1-[[4-[(benzo[b]furan-3-ylcarbonyl)amino]-2,5-dichlorophenyl]acetyl]-(4S)-(4-ethoxypiperidin-1-yl)-(2S)-pyrrolidinylmethoxy]cyclohexanecarboxylic acid], the Ki worked out at 2 nM and the concentration for half-maximal inhibition (IC50) was 15 nM.

On to `Cn1cc(C(=O)Nc2cc(Cl)c(CC(=O)N3C[C@@H](N4CCC(S(C)(=O)=O)CC4)C[C@H]3CO[C@H]3CC[C@H](C(=O)O)CC3)cc2Cl)c2ccccc21` [Example 108, Trans-4-[1-[[2,5-dichloro-4-[(1-methyl-1H-indol-3-ylcarbonyl)amino]phenyl]acetyl]-(4S)-(4-methanesulfonylpiperidin-1-yl)-(2S)-pyrrolidinylmethoxy]cyclohexanecarboxylic acid], for which the inhibitory constant (Ki) was found to be 3.1 nM and the IC50 turned out to be 8.2 nM.

Consider `CN(C)C1CCN([C@H]2C[C@@H](CO[C@H]3CC[C@H](C(=O)O)CC3)N(C(=O)Cc3cc(Cl)c(NC(=O)c4cn(C)c5ccccc45)cc3F)C2)CC1` [Example 109, Trans-4-[1-[[5-chloro-2-fluoro-4-[(1-methyl-1H-indol-3-ylcarbonyl)amino]phenyl]acetyl]-(4S)-[4-(N,N-dimethylamino)piperidin-1-yl]-(2S)-pyrrolidinylmethoxy]cyclohexanecarboxylic acid], for which the inhibition constant (Ki) is 3.6 nM and the IC50 came to 5.2 nM.

Take `CN1CCN([C@H]2C[C@@H](CO[C@H]3CC[C@H](C(=O)O)CC3)N(C(=O)Cc3cc(Cl)c(NC(=O)c4csc5ccccc45)cc3F)C2)CC1` [Example 111, Trans-4-[1-[[4-[(benzo[b]thiophen-3-ylcarbonyl)amino]-5-chloro-2-fluorophenyl]acetyl]-(4S)-(4-methylpiperazin-1-yl)-(2S)-pyrrolidinylmethoxy]cyclohexanecarboxylic acid]: the affinity, expressed as Ki, was 0.29 nM and the IC50 is 1.2 nM.

Regarding `CN1CCN([C@H]2C[C@@H](CO[C@H]3CC[C@H](C(=O)O)CC3)N(C(=O)Cc3cc(Cl)c(NC(=O)c4cn(C)c5ccccc45)cc3Cl)C2)CC1` [Example 112, Trans-4-[1-[[2,5-dichloro-4-[(1-methyl-1H-indol-3-ylcarbonyl)amino]phenyl]acetyl]-(4S)-(4-methylpiperazin-1-yl)-(2S)-pyrrolidinylmethoxy]cyclohexanecarboxylic acid], the inhibition constant Ki came to 4.2 nM and the IC50 came to 9.5 nM.

Turning to `CC(C)(C)N1CCN([C@H]2C[C@@H](CO[C@H]3CC[C@H](C(=O)O)CC3)N(C(=O)Cc3cc(Cl)c(NC(=O)c4coc5ccccc45)cc3Cl)C2)CC1` [Example 114, Trans-4-[1-[[4-[(benzo[b]furan-3-ylcarbonyl)amino]-2,5-dichlorophenyl]acetyl]-(4S)-[4-(tert-butyl)piperazin-1-yl]-(2S)-pyrrolidinylmethoxy]cyclohexanecarboxylic acid], the Ki amounted to 3 nM and the 50% inhibitory concentration (IC50) was 8.9 nM.

Take `Cn1cc(C(=O)Nc2cc(Cl)c(CC(=O)N3C[C@@H](N4CCN(CC5CC5)CC4)C[C@H]3CO[C@H]3CC[C@H](C(=O)O)CC3)cc2Cl)c2ccccc21` [Example 115, Trans-4-[1-[[2,5-dichloro-4-[(1-methyl-1H-indol-3-ylcarbonyl)amino]phenyl]acetyl]-(4S)-[(4-cyclopropylmethyl)piperazin-1-yl]-(2S)-pyrrolidinylmethoxy]cyclohexanecarboxylic acid]: the affinity corresponds to a Ki of 4.2 nM and the IC50 stood at 13 nM.

On to `O=C(Nc1cc(F)c(CC(=O)N2C[C@@H](N3CCN(Cc4ccccc4)CC3)C[C@H]2CO[C@H]2CC[C@H](C(=O)O)CC2)cc1Cl)c1csc2ccccc12` [Example 116, Trans-4-[(4S)-(4-benzylpiperazin-1-yl)-1-[[4-[(benzo[b]thiophen-3-ylcarbonyl)amino]-5-chloro-2-fluorophenyl]acetyl]-(2S)-pyrrolidinylmethoxy]cyclohexanecarboxylic acid], for which the inhibition constant (Ki) amounted to 0.6 nM and the IC50 came to 21 nM.

As to `Cn1cc(C(=O)Nc2cc(Cl)c(CC(=O)N3C[C@@H](N4CCN(CCF)CC4)C[C@H]3CO[C@H]3CC[C@H](C(=O)O)CC3)cc2Cl)c2ccccc21` [Example 117, Trans-4-[1-[[2,5-dichloro-4-[(1-methyl-1H-indol-3-ylcarbonyl)amino]phenyl]acetyl]-(4S)-[4-(2-fluoroethyl)piperazin-1-yl]-(2S)-pyrrolidinylmethoxy]cyclohexanecarboxylic acid], the Ki was 4.5 nM and the IC50 is 12 nM.

As for `Cn1cc(C(=O)Nc2cc(Cl)c(CC(=O)N3C[C@@H](N4CCN(C(C)(C)CF)CC4)C[C@H]3CO[C@H]3CC[C@H](C(=O)O)CC3)cc2Cl)c2ccccc21` [Example 119, Trans-4-[1-[[2,5-dichloro-4-[(1-methyl-1H-indol-3-ylcarbonyl)amino]phenyl]acetyl]-(4S)-[4-(1,1-dimethyl-2-fluoroethyl)piperazin-1-yl]-(2S)-pyrrolidinylmethoxy]cyclohexanecarboxylic acid], the inhibition constant (Ki) is 4.5 nM and the half-inhibitory concentration (IC50) came to 20 nM.

Consider `Cn1cc(C(=O)Nc2cc(Cl)c(CC(=O)N3C[C@@H](N4CCN(CC(F)F)CC4)C[C@H]3CO[C@H]3CC[C@H](C(=O)O)CC3)cc2Cl)c2ccccc21` [Example 120, Trans-4-[1-[[2,5-dichloro-4-[(1-methyl-1H-indol-3-ylcarbonyl)amino]phenyl]acetyl]-(4S)-[4-(2,2-difluoroethyl)piperazin-1-yl]-(2S)-pyrrolidinylmethoxy]cyclohexanecarboxylic acid], for which the Ki stood at 3.8 nM and the IC50 came to 16 nM.

Turning to `Cn1cc(C(=O)Nc2cc(F)c(CC(=O)N3C[C@@H](N4CCN(CC(F)F)CC4)C[C@H]3CO[C@H]3CC[C@H](C(=O)O)CC3)cc2Cl)c2ccccc21` [Example 121, Trans-4-[1-[[5-chloro-2-fluoro-4-[(1-methyl-1H-indol-3-ylcarbonyl)amino]phenyl]acetyl]-(4S)-[4-(2,2-difluoroethyl)piperazin-1-yl]-(2S)-pyrrolidinylmethoxy]cyclohexanecarboxylic acid], the Ki worked out at 3.2 nM and the IC50 worked out at 11 nM.

`Cn1cc(C(=O)Nc2cc(Cl)c(CC(=O)N3C[C@@H](N4CCN(CC(F)(F)F)CC4)C[C@H]3CO[C@H]3CC[C@H](C(=O)O)CC3)cc2Cl)c2ccccc21` [Example 122, Trans-4-[1-[[2,5-dichloro-4-[(1-methyl-1H-indol-3-ylcarbonyl)amino]phenyl]acetyl]-(4S)-[4-(2,2,2-trifluoroethyl)piperazin-1-yl]-(2S)-pyrrolidinylmethoxy]cyclohexanecarboxylic acid]: the affinity, expressed as Ki, was 8.8 nM and the IC50 turned out to be 36 nM.
